Reference: article PMC9283133, “Human cytosolic transaminases: side activities and patterns of discrimination towards physiologically available alternative substrates” (Cellular and Molecular Life Sciences: CMLS, 2022)
Values belong to the molecule of their own block, whether it stands above or below them.

Tests used:
PSAT1 = target: T1, PSAT1 (Homo sapiens, UniProt Q9Y617); assay: end-point GDH assay of alpha-ketoglutarate; LC-MS of product; format: biochemical; details: L-Glu 1 mM as donor; pH 7.2, 37 C, 16 h
T1 sequence (Q9Y617 1-370): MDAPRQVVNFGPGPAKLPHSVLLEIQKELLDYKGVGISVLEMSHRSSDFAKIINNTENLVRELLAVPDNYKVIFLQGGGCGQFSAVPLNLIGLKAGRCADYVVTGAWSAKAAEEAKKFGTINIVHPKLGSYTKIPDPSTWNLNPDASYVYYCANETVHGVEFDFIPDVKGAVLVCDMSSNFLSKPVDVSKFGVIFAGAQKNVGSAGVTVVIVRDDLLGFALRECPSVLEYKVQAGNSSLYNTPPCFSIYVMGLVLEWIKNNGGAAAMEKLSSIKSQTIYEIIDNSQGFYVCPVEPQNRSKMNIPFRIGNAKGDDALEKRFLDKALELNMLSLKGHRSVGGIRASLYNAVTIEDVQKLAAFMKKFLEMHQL

[1] = target: T2, LDHA (lactate dehydrogenase A) (Homo sapiens, UniProt P00338); assay: spectrophotometric reduction with NADH; format: biochemical
T2 construct: gift clone

[2] = target: T3, MDH1 (cytosolic malate dehydrogenase) (Homo sapiens, UniProt P40925); assay: spectrophotometric reduction with NADH; format: biochemical
T3 construct: from human kidney cDNA, pET28a, His6-tagged, expressed in E. coli BL21(DE)
T3 sequence (P40925 2-334): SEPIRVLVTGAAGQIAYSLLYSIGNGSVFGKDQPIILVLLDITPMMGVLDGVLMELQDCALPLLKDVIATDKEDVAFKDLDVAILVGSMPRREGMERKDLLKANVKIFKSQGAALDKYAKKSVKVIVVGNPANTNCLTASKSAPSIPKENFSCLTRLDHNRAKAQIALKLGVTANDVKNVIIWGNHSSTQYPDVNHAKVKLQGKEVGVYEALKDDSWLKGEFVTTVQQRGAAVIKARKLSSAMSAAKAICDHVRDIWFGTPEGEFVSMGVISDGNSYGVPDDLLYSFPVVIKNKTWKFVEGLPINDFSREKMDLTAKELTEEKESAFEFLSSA

[3] = target: T4, TAT (tyrosine aminotransferase) (Homo sapiens, UniProt P17735); assay: continuous coupled assay with MDH1 and NADH; format: biochemical; details: alpha-ketoglutarate 0.5 mM as acceptor; pH 8.0; read-out: apparent KM
T4 sequence (P17735 41-454): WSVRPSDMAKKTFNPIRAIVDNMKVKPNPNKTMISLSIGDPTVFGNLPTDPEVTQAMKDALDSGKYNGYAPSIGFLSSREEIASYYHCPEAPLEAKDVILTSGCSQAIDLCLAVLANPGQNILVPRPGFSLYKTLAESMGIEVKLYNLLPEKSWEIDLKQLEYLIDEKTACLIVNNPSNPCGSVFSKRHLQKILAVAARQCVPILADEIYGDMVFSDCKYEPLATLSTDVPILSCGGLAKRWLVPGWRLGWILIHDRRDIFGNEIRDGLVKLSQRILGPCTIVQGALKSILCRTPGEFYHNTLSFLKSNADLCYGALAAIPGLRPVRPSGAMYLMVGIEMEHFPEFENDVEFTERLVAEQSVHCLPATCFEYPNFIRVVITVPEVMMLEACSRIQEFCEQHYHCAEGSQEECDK
Text: continuous coupled assay with MDH1 and NADH on TAT (tyrosine aminotransferase) | the opposite is true for TAT (Fig. 3A)

[4] = substrate: N[C@@H](Cc1c[nH]c2ccccc12)C(=O)O; assay: continuous coupled assay with MDH1 and NADH; format: biochemical, Homo sapiens; details: pyruvate 3 mM as acceptor, pH 8.0

end-point GDH assay of alpha-ketoglutarate; LC-MS of product (PSAT1): DHAP, which reacted primarily with PSAT1
Molecule: O=C(CO)COP(=O)(O)O [DHAP]

Molecule: CC(O)C(=O)C(=O)O (stereo not drawn) [3-hydroxy-2-ketobutyrate]
spectrophotometric reduction with NADH [1]: 3-hydroxy-2-ketobutyrate, is a substrate for LDHA

Molecule: O=C(O)C(=O)Cc1c[nH]c2ccccc12 [IndPy]
spectrophotometric reduction with NADH [2]: recombinant MDH1 reduced with good efficiency IndPy

Km [3]: > 10 mM
Molecule: N[C@@H](Cc1c[nH]c2ccccc12)C(=O)O [L-Trp]

B1: GTK (glutamine transaminase K; KYAT1) (Homo sapiens) (protein)
chain: MAKQLQARRLDGIDYNPWVEFVKLASEHDVVNLGQGFPDFPPPDFAVEAFQHAVSGDFMLNQYTKTFGYPPLTKILASFFGELLGQEIDPLRNVLVTVGGYGALFTAFQALVDEGDEVIIIEPFFDCYEPMTMMAGGRPVFVSLKPGPIQNGELGSSSNWQLDPMELAGKFTSRTKALVLNTPNNPLGKVFSREELELVASLCQQHDVVCITDEVYQWMVYDGHQHISIASLPGMWERTLTIGSAGKTFSATGWKVGWVLGPDHIMKHLRTVHQNSVFHCPTQSQAAVAESFEREQLLFRQPSSYFVQFPQAMQRCRDHMIRSLQSVGLKPIIPQGSYFLITDISDFKRKMPDLPGAVDEPYDRRFVKWMIKNKGLVAIPVSIFYSVPHQKHFDHYIRFCFVKDEATLQAMDEKLRKWKVEL
notes: cytosolic enzyme
Km [4]: 0.14 ± 0.03 mM
kcat/Km [4]: 490 ± 30 M⁻¹ s⁻¹
